Assay results reported in ChEMBL document CHEMBL1201862, “PubChem BioAssay data set” (2004).
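The compound was tested at five concentrations on cells cultured in 96-well plates, with a 48-hour exposure period. GI50 marks 50% less growth.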 Calls of active or inactive are those of the source. No stated cut-off is given here; in the data, active = GI50 up to about 1.1 µM and inactive = higher.

Columns and labels:
Assay in all cases: NCI anticancer screen, dose series, 48 h
[1] = test system: SK-OV-3
[2] = test system: NCI-H522
[3] = test system: HOP-92
[4] = test system: SK-MEL-28
[5] = test system: RPMI-8226
[6] = test system: KM12
[7] = test system: OVCAR-3
[8] = test system: MDA-N
[9] = test system: OVCAR-4
[10] = test system: SNB-75
[11] = test system: EKVX
[12] = test system: SR
[13] = test system: NCI/ADR-RES
[14] = test system: A549
[15] = test system: PC-3
[16] = test system: UACC-257
[17] = test system: LOX IMVI
[18] = test system: NCI-H23
[19] = test system: HL-60
[20] = test system: HT-29

SMILES | GI50 [1] | GI50 [2] | GI50 [3] | GI50 [4] | GI50 [5] | GI50 [6] | GI50 [7] | GI50 [8] | GI50 [9] | GI50 [10] | GI50 [11] | GI50 [12] | GI50 [13] | GI50 [14] | GI50 [15] | GI50 [16] | GI50 [17] | GI50 [18] | GI50 [19] | GI50 [20]
O=[N+]([O-])c1ccc(-c2nc3ccccc3o2)cc1 | > 100 µM (inactive) | > 100 µM (inactive) | > 100 µM (inactive) | > 100 µM (inactive) | > 100 µM (inactive) | > 100 µM (inactive) | > 100 µM (inactive) | > 100 µM (inactive) | > 100 µM (inactive) | > 100 µM (inactive) | > 100 µM (inactive) | > 100 µM (inactive) | > 100 µM (inactive) | > 100 µM (inactive) | > 100 µM (inactive) | > 100 µM (inactive) | > 100 µM (inactive) | > 100 µM (inactive) | – | –
COc1ccc(CC2c3cc4c(cc3CCN2C)OCO4)c(C=O)c1OC (stereo not given) | > 100 µM (inactive) | > 100 µM (inactive) | > 100 µM (inactive) | > 100 µM (inactive) | > 100 µM (inactive) | > 100 µM (inactive) | > 100 µM (inactive) | > 100 µM (inactive) | > 100 µM (inactive) | 40.8 µM (inactive) | > 100 µM (inactive) | – | > 100 µM (inactive) | > 100 µM (inactive) | > 100 µM (inactive) | > 100 µM (inactive) | > 100 µM (inactive) | > 100 µM (inactive) | > 100 µM (inactive) | > 100 µM (inactive)
COc1c(NC(C)=O)c2ccccc2c2ccccc12 | – | > 100 µM (inactive) | 42.2 µM (inactive) | > 100 µM (inactive) | – | > 100 µM (inactive) | > 100 µM (inactive) | > 100 µM (inactive) | > 100 µM (inactive) | – | > 100 µM (inactive) | > 100 µM (inactive) | > 100 µM (inactive) | > 100 µM (inactive) | > 100 µM (inactive) | > 100 µM (inactive) | > 100 µM (inactive) | > 100 µM (inactive) | 99.5 µM (inactive) | > 100 µM (inactive)
O=C1CCc2nc3ncccc3cc2C1 | > 100 µM (inactive) | 22.2 µM (inactive) | > 100 µM (inactive) | > 100 µM (inactive) | 64.1 µM (inactive) | – | 47.2 µM (inactive) | 63.5 µM (inactive) | > 100 µM (inactive) | > 100 µM (inactive) | > 100 µM (inactive) | – | > 100 µM (inactive) | > 100 µM (inactive) | > 100 µM (inactive) | > 100 µM (inactive) | – | > 100 µM (inactive) | – | –
C#CCCCOc1ncccn1 | > 100 µM (inactive) | > 100 µM (inactive) | > 100 µM (inactive) | > 100 µM (inactive) | > 100 µM (inactive) | > 100 µM (inactive) | > 100 µM (inactive) | > 100 µM (inactive) | > 100 µM (inactive) | – | > 100 µM (inactive) | > 100 µM (inactive) | > 100 µM (inactive) | > 100 µM (inactive) | > 100 µM (inactive) | > 100 µM (inactive) | > 100 µM (inactive) | > 100 µM (inactive) | > 100 µM (inactive) | > 100 µM (inactive)
C[Si](C)(c1ccc(C(=O)O)cc1)c1ccc(C(=O)O)cc1 | > 100 µM (inactive) | > 100 µM (inactive) | > 100 µM (inactive) | > 100 µM (inactive) | > 100 µM (inactive) | > 100 µM (inactive) | > 100 µM (inactive) | > 100 µM (inactive) | > 100 µM (inactive) | > 100 µM (inactive) | > 100 µM (inactive) | > 100 µM (inactive) | > 100 µM (inactive) | > 100 µM (inactive) | > 100 µM (inactive) | > 100 µM (inactive) | > 100 µM (inactive) | > 100 µM (inactive) | – | > 100 µM (inactive)
C[C@@H]1C(=O)O[C@@H]2C[C@@]1(C)[C@@H]1C(=O)C3(O)OC14C2(C)OC(=O)[C@@]4(O)CCC1C3C(O)C=C2CC=CC(=O)[C@@]21C (stereo not given in full) | 47 µM (inactive) | – | – | 22.2 µM (inactive) | 19.7 µM (inactive) | 26.6 µM (inactive) | – | 28.9 µM (inactive) | 27.8 µM (inactive) | 15.7 µM (inactive) | 40.6 µM (inactive) | 18.2 µM (inactive) | > 100 µM (inactive) | 40.8 µM (inactive) | 36 µM (inactive) | 31 µM (inactive) | – | – | 13.4 µM (inactive) | 34 µM (inactive)
Cc1cc(N(CCC#N)CCC#N)ccc1/C=C1N=C(/C=C\c2ccccc2)N(c2ccc(Cl)cc2)C\1=O | > 87.1 µM (inactive) | 24.7 µM (inactive) | > 95.7 µM (inactive) | 5.46 µM (inactive) | – | 4.52 µM (inactive) | 40.5 µM (inactive) | > 100 µM (inactive) | > 39.4 µM (inactive) | > 100 µM (inactive) | > 100 µM (inactive) | > 100 µM (inactive) | > 100 µM (inactive) | > 39.9 µM (inactive) | 0.536 µM (active) | > 54.6 µM (inactive) | 1.01 µM (active) | 36.6 µM (inactive) | 6.05 µM (inactive) | 2.11 µM (inactive)
CC(C)(C)OC(=O)N1CCC2(C)CC(=O)CC=C12 (stereo not given) | > 100 µM (inactive) | 45.4 µM (inactive) | > 100 µM (inactive) | > 100 µM (inactive) | – | > 100 µM (inactive) | > 100 µM (inactive) | > 100 µM (inactive) | > 100 µM (inactive) | > 100 µM (inactive) | > 100 µM (inactive) | 72.4 µM (inactive) | > 100 µM (inactive) | > 100 µM (inactive) | > 100 µM (inactive) | 28.2 µM (inactive) | > 100 µM (inactive) | > 100 µM (inactive) | > 100 µM (inactive) | > 100 µM (inactive)
O=C1CCCCC/C1=C\c1cccc([N+](=O)[O-])c1 | 79.1 µM (inactive) | – | – | 38.1 µM (inactive) | 21.6 µM (inactive) | 25 µM (inactive) | 28.8 µM (inactive) | 53.7 µM (inactive) | – | 38.2 µM (inactive) | 33.7 µM (inactive) | 11.6 µM (inactive) | 34.1 µM (inactive) | 44.6 µM (inactive) | 34.3 µM (inactive) | 22.4 µM (inactive) | – | – | 17.7 µM (inactive) | 37.2 µM (inactive)
CN(C)c1ccc(/C=C2\C[C@H]3[C@@H]4CCC5=CC(=O)CC[C@]5(C)[C@H]4CC[C@]3(C)C2=O)cc1 | > 100 µM (inactive) | – | 22.4 µM (inactive) | > 100 µM (inactive) | 17.5 µM (inactive) | 72.1 µM (inactive) | 88.1 µM (inactive) | 19.5 µM (inactive) | 59.7 µM (inactive) | > 100 µM (inactive) | 19.2 µM (inactive) | 17.7 µM (inactive) | 38.3 µM (inactive) | 38 µM (inactive) | 12.6 µM (inactive) | 19 µM (inactive) | 20.8 µM (inactive) | 52.7 µM (inactive) | 17.2 µM (inactive) | 23.9 µM (inactive)
O=c1c2ccccc2nc2n1C(c1ccc([N+](=O)[O-])cc1)C2(c1ccccc1)c1ccccc1 (stereo not given) | > 100 µM (inactive) | > 100 µM (inactive) | > 100 µM (inactive) | > 100 µM (inactive) | 8.2 µM (inactive) | > 100 µM (inactive) | > 100 µM (inactive) | > 100 µM (inactive) | > 100 µM (inactive) | – | > 100 µM (inactive) | – | > 100 µM (inactive) | 12.9 µM (inactive) | 24 µM (inactive) | > 100 µM (inactive) | > 100 µM (inactive) | > 100 µM (inactive) | 37.2 µM (inactive) | 9.98 µM (inactive)
CCCCNC(=S)c1ccc(OC(=O)Nc2ccc(Cl)cc2)cc1 | > 100 µM (inactive) | 24.5 µM (inactive) | – | 22.3 µM (inactive) | 65.2 µM (inactive) | 2.75 µM (inactive) | 66.5 µM (inactive) | > 100 µM (inactive) | 8.43 µM (inactive) | – | 42.2 µM (inactive) | 16.3 µM (inactive) | 12.4 µM (inactive) | 39.1 µM (inactive) | > 100 µM (inactive) | 77.4 µM (inactive) | 0.573 µM (active) | 31.2 µM (inactive) | 8.57 µM (inactive) | 8.18 µM (inactive)
CC(=O)Oc1ccc2c(c1)O/C(=C\c1ccc(N(C)C)cc1)C2=O | > 100 µM (inactive) | 25.9 µM (inactive) | – | > 100 µM (inactive) | 54.6 µM (inactive) | 90.8 µM (inactive) | – | 36.4 µM (inactive) | 75.2 µM (inactive) | 87.9 µM (inactive) | > 100 µM (inactive) | 37.2 µM (inactive) | 29.6 µM (inactive) | > 100 µM (inactive) | > 100 µM (inactive) | > 100 µM (inactive) | – | > 100 µM (inactive) | 32.7 µM (inactive) | > 100 µM (inactive)
CC1CCC2C(C)(C)CC3(C)CCC1C23O (stereo not given) | 29 µM (inactive) | – | 13.3 µM (inactive) | 16.3 µM (inactive) | – | 15.5 µM (inactive) | 16.3 µM (inactive) | 12.7 µM (inactive) | 22.1 µM (inactive) | 18.8 µM (inactive) | 15.1 µM (inactive) | 12.3 µM (inactive) | 14.6 µM (inactive) | 16.3 µM (inactive) | 13 µM (inactive) | 16.2 µM (inactive) | 15.3 µM (inactive) | 16.1 µM (inactive) | 1.63 µM (inactive) | 16.3 µM (inactive)
